Test results as given in patent US5973201A, “Phenylacetamide derivatives” (Korea Research Institute of Chemical Technology, priority 1995, dated 1999).

How the values were obtained:
[1] = phenyl-1,4-benzoquinone (PBQ) induced writhing test (analgesic effect); format: in vivo, KTC-ICR rats; conditions: Mus musculus
Description: (§1) The physiological activities of the compounds of the present invention prepared according to Example 1 to 6 were measured by employing acetic acid or phenyl-1,4-benzoquinone (PBQ) induced writhing test method.
(§2) In case of the acetic acid-induced writhing test, KTC-ICR […] (available from animal laboratory of Korea Research Institute of Chemical Technology) each having a body weight of 20-25 g were used, while in the PBQ induced writhing test, KTC-ICR […] each having a body weight of 14-18 g were employed. A group consisting of 8 mice which had been adjusted to the testing environment for a week were used in determining the effects of each dosage of a test compound. Water and food were given frelly and illumination was maintained on a 12-hour cycle.
(§3) Test solutions were prepared by dissolving one of the final products obtained in Examples 1 to 6 in distilled water containing 1% of Tween and 5% ethanol in a pre-determined concentration. The test solutions were used after serial dilution depending on each dosage.
(§4) The test solutions were […] administered in a dose of 0.1 ml per 10 g of a body weight. 0.1 ml of 1% acetic acid solution or 0.1 ml of 0.02% PBQ solution was administered […] or after 30 minutes in case of subcutaneous injection.
(§5) Then, the number of writhings generated during a period of 10 minutes after 3 minutes from the administration of acetic acid was measured. in case of the administration of PBQ, the number of writhings generated during a period of 5 minutes after 5 minutes from the administration was measured.
(§6) For a comparison purpose, initially, distilled water containing 1% of Tween and 5% ethanol alone was administered to the control group. Then, the control groups were subjeted the same procedure as the test groups.
(§7) The number of writhings suffered by the test group was compared with that of the control group; and the analgesic effect was measured in terms of the percentage of inhibition of writhing (I.W.). [formula] wherein: A is the number of writhings suffered by the control group; and
(§8) B is the number of writhings suffered by the test group.
(§9) I.W. values for each dosage were calculated by employing regression analysis. The amount of a test compound which is required in reducing the frequency of writhings to the 50% level of that generated by the control group, i.e., B=0.5A or I.W.=50%, is designated as ED50 (mg/kg of a body weight). Therefore, a lower value of ED50 represents a higher analgesic effect of the tested compound.

[2] = Toxicity test: behavioral changes in the test animals; format: in vivo; conditions: score; for Convulsion / Salivation / Urination: normal value 0; for Dyspnoea / Ptosis / Sedation / Vasodilation: normal value 4
[3] = acetic acid-induced writhing test (analgesic effect); format: in vivo, KTC-ICR rats; conditions: Mus musculus
Description: as §1, §2, §3, §4, §5, §6, §7, §8, §9

[4] = PBQ, dose reducing writhing to 50% of control, read-out: ED50
[5] = acetic acid, dose reducing writhing to 50% of control, read-out: ED50

## COc1cc(CC(=O)NCCOCc2ccc(C)c(C)c2)ccc1OCCN [Example 3, N-{2-(3,4-dimethylbenzyloxy)ethyl}-4-(2-aminoethoxy)-3-methoxyphenylacetamide]
[1]; [4]
  ED50: 10.9 mg/kg
[2]; 5 mg/kg
  Convulsion: 0
  Salivation: 0
  Urination: 0
  Dyspnoea: 4
  Ptosis: 4
  Sedation: 4
  Vasodilation: 4
[2]; 10 mg/kg
  Convulsion: 0
  Salivation: 0
  Urination: 0
  Dyspnoea: 4
  Ptosis: 4
  Sedation: 4
  Vasodilation: 4
[2]; 20 mg/kg
  Convulsion: 0
  Salivation: 0
  Urination: 0
  Dyspnoea: 4
  Ptosis: 5
  Sedation: 5
  Vasodilation: 4

## CCCCCCCC/C=C\CCCCCCCC(=O)NCc1ccc(OCCN)c(OC)c1 [NE-21610, reference compound]
[3]; [5]
  ED50: > 300 mg/kg
[1]; [4]
  ED50: 38.3 mg/kg

## COc1cc(CC(=O)NCCSc2ccc(C)cc2)ccc1OCCN [Example 5, N-{2-(4-methylthiophenoxy)ethyl}-4-(2-aminoethoxy)-3-methoxyphenylacetamide]
[3]; [5]
  ED50: 0.84 mg/kg
[2]; 0.63 mg/kg
  Convulsion: 0
  Salivation: 0
  Urination: 0
  Dyspnoea: 4
  Ptosis: 4
  Sedation: 4
  Vasodilation: 4
[2]; 1.25 mg/kg
  Convulsion: 0
  Salivation: 0
  Urination: 0
  Dyspnoea: 6
  Ptosis: 6
  Sedation: 6
  Vasodilation: 4
[2]; 2.5 mg/kg
  Convulsion: 0
  Salivation: 0
  Urination: 0
  Dyspnoea: 6
  Ptosis: 6
  Sedation: 7
  Vasodilation: 5

## COc1cc(CC(=O)NCCOCc2ccc(C)c(C)c2)ccc1O [Example 4, N-{2-(3,4-dimethylbenzyloxy)ethyl}-4-hydroxy-3-methoxyphenylacetamide]
[3]; [5]
  ED50: 2.08 mg/kg
[2]; 1.25 mg/kg
  Convulsion: 0
  Salivation: 0
  Urination: 0
  Dyspnoea: 4
  Ptosis: 4
  Sedation: 4
  Vasodilation: 4
[2]; 2.5 mg/kg
  Convulsion: 0
  Salivation: 0
  Urination: 0
  Dyspnoea: 5
  Ptosis: 6
  Sedation: 6
  Vasodilation: 4
[2]; 5 mg/kg
  Convulsion: 0
  Salivation: 0
  Urination: 0
  Dyspnoea: 6
  Ptosis: 7
  Sedation: 7
  Vasodilation: 5

## COc1cc(CC(=O)NCCCc2ccc(C)c(C)c2)ccc1OCCN [Control, reference compound]
[2]; 0.25 mg/kg
  Convulsion: 1
  Salivation: 0
  Urination: 0
  Dyspnoea: 5
  Ptosis: 6
  Sedation: 6
  Vasodilation: 5
[2]; 0.5 mg/kg
  Convulsion: 1
  Salivation: 0
  Urination: 0
  Dyspnoea: 6
  Ptosis: 7
  Sedation: 7
  Vasodilation: 5
[2]; 1 mg/kg
  Convulsion: 1
  Salivation: 0
  Urination: 0
  Dyspnoea: 6
  Ptosis: 7
  Sedation: 7
  Vasodilation: 6

## COc1cc(CC(=O)NCCSc2ccc(C)c(C)c2)ccc1OCCN [Example 6, N-{2-(3,4-dimethylthiophenoxy)ethyl}-4-(2-aminoethoxy)-3-methoxyphenylacetarnide]
[3]; [5]
  ED50: 0.48 mg/kg
[2]; 0.31 mg/kg
  Convulsion: 0
  Salivation: 0
  Urination: 0
  Dyspnoea: 4
  Ptosis: 4
  Sedation: 4
  Vasodilation: 4
[2]; 0.63 mg/kg
  Convulsion: 0
  Salivation: 0
  Urination: 0
  Dyspnoea: 4
  Ptosis: 5
  Sedation: 6
  Vasodilation: 4
[2]; 1.25 mg/kg
  Convulsion: 0
  Salivation: 0
  Urination: 0
  Dyspnoea: 6
  Ptosis: 6
  Sedation: 6
  Vasodilation: 5

## CCCCCCCC/C=C\CCCCCCCC(=O)NCc1ccc(O)c(OC)c1 [NE-19550, Nvanillyloleamide, reference compound]
[3]
  ED50: 15.7 mg/kg

## CC(=O)Oc1ccccc1C(=O)O [Aspirin, acetylsalicylic acid]
[1]
  ED50: 71.4 mg/kg

## COc1ccc2cc([C@H](C)C(=O)O)ccc2c1 [Naproxen]
[1]; [4]
  ED50: 17.1 mg/kg

## CC(C)Cc1ccc(C(C)C(=O)O)cc1 (centres unmarked) [Ibuprofen]
[1]; [4]
  ED50: 11 mg/kg

## COc1cc(CC(=O)NCCCOc2ccc(C)c(C)c2)ccc1OCCN [Example 2, N-{3-(3,4-dimethylphenoxy)propyl}-4-(2-aminoethoxy)-3-methoxyphenylacetamide]
[1]; [4]
  ED50: 7.02 mg/kg
[2]; 2.5 mg/kg
  Convulsion: 0
  Salivation: 0
  Urination: 0
  Dyspnoea: 4
  Ptosis: 4
  Sedation: 4
  Vasodilation: 4
[2]; 5 mg/kg
  Convulsion: 0
  Salivation: 0
  Urination: 0
  Dyspnoea: 5
  Ptosis: 6
  Sedation: 6
  Vasodilation: 5
[2]; 10 mg/kg
  Convulsion: 0
  Salivation: 0
  Urination: 0
  Dyspnoea: 7
  Ptosis: 6
  Sedation: 7
  Vasodilation: 6

## COc1cc(CC(=O)NCCOc2ccc(C)c(C)c2)ccc1OCCN [Example 1, N-{2-(3,4-dimethylphenoxy)ethyl}-4-(2-aminoethoxy)-3-methoxyphenylacetamide]
[1]; [4]
  ED50: 9.53 mg/kg

## COc1cc(CNC(=O)CCCC/C=C/C(C)C)ccc1O [Capsaicin, N-vanillyl-trans-8-methyl-6-nonenamide, reference compound]
[3]
  ED50: 1.34 mg/kg

## CCCCC1C(=O)N(c2ccccc2)N(c2ccccc2)C1=O [Phenylbutazone]
[1]; [4]
  ED50: 79.8 mg/kg
